From patent US7858738B2, “Synthetic human peptides and pharmaceutical compositions comprising them for the treatment of systemic lupus erythematosus” (Yeda Research and Development Co., Ltd., priority 2001, dated 2010)

Tests used:
[1] = tested on: SJL-derived LNC; assay: In vivo inhibition of proliferation of SJL LNC to the human 16/6Id mAb; set-up: species or system mice; conditions: maximum % inhibition; 200 μg/mouse s.c. in PBS concomitant with priming
Method: Because our aim was to test the inhibitory capacity of the peptides based on the CDR of the human 16/6Id autoantibody, it was of importance to find out whether peptides hCDR1 and hCDR3 are capable of inhibiting the priming to the whole molecule of the human 16/6Id mAb. To this end, BALB/c and SJL mice were primed with the human 16/6Id mAb (2 μg/mouse) in CFA intradermally in the hind footpads. The priming was done concomitant with the s.c. administration in PBS of 200 μg/mouse of hCDR1 to groups of BALB/c mice and of hCDR3 to SJL mice. Ten days following immunization, the mice were sacrificed and their LNCs were tested in vitro for their ability to proliferate to different concentrations (0.1-10 μg/well) of the human anti-DNA 16/6Id mAb.
The results are presented as maximum % inhibition of the proliferation to the immunizing human 16/6Id mAb of lymph node cells of mice immunized and treated with the peptides hCDR1 and hCDR3 as compared with mice that were immunized with the 16/6Id mAb but were not treated with the peptides.

[2] = tested on: MMP-9; assay: MMP-9 activity in sera of (NZB×NZW)F1 mice (gel zymography); type: in vivo; conditions: 300 μg s.c. once a week from age 7 months; sera after 5 injections; FIG. 23
Method: (§1) Induction and treatment of experimental SLE. In order to induce experimental SLE, BALB/c mice were immunized with 1-2 μg of the human mAb 16/6Id and boosted 3 weeks later. For the prevention of experimental SLE, mice were given hCDR1 or hCDR3 (mCDR1 or revmCDR1 as control peptide in Example 12) intravenously (i.v.) or s.c. concomitant with the immunization, and were injected weekly thereafter for 5 weeks. Treatment of an established disease started three and a half months following disease induction with the 16/6Id, when clinical manifestations were already observed. In Example 12, mice received 10 weekly injections (i.v. or s.c.) of mCDR1 or revmCDR1 at a dose of 100 μg/mouse. Prevention and treatment of SLE-like disease in (NZB×NZW)F1 mice with the hCDR1 or mCDR1 peptide. For prevention of SLE, mice at the age of 2 months, before disease manifestations are observed, were injected s.c. with hCDR1 (or mCDR1 in Example 12, 250 μg/mouse) once a week for 10 weeks. To treat an established disease, mice at the age of 5-7 months were injected with hCDR1 (in Example 12, mCDR1 s.c., 250 μg/mouse) once a week for 10 weeks. Proliferative Responses. PBL were isolated from heparinized venous blood by Ficoll-Hypaque (Pharmacia) density-gradient centrifugation. All assays were performed, in triplicate, in flat-bottomed microtiter plates (Falcon, Becton Dickinson, Oxmard, Calif., USA) in which 2×10^5 PBL were cultured in enriched RPMI-1640 as described (Dayan et al., 2000). The PBL were exposed to various concentrations (0.1-40 μg/well) of the human anti-DNA 16/6Id mAb with and without the addition of the various CDR-based peptides at a concentration of at least 10-fold excess over that of the 16/6Id. Phytohemagglutinin (PHA; 2 μg/well) was used as a control for culture conditions at each experiment. The cultures were incubated in 7.5% CO2 at 37° C. for 6 days. Eighteen hours before the cells were harvested, [^3H]-thymidine (0.5μ Ci of 5 Ci/mmol) (Nuclear Research Center, Negev, Israel) was added to all cultures. Results are expressed as the mean thymidine incorporation in counts per minute (CPM) of triplicate culture±SD, or as stimulation index (S.I.; the ratio of mean CPM at the optimal concentration of the human 16/6Id to the mean CPM in the presence of medium alone). […] TGF-β was determined by an ELISA. […] The substrate solution used was TMB color Reagent (Helix Diagnostics, West Sacramento, Calif.), and enzyme activity was evaluated by using 570- and 630-nm filters. […] Proteinuria was measured semiquantitatively by using Combistix kit (Ames Division, Bayer Diagnostics, Newbury, U.K.). White blood cells (WBC, for leukopenia) were counted after a 10-fold dilution of heparinized blood in distilled water containing 1% acetic acid (vol/vol). […]

[3] = tested on: (NZB×NZW)F1 mice; assay: Transfer of splenocytes of peptide-treated mice into (NZB×NZW)F1 mice with full-blown disease; type: in vivo
From the text: It was of importance to investigate whether the beneficial effects of treatment with hCDR1, that are manifested by the down-regulation of disease manifestations, can be transferred by spleen cells of treated mice. To this end, we have performed an experiment in which 8-month old (NZB×NZW)F1 mice, that suffer already from the full-blown lupus-like disease, were divided into 2 groups. Group 1 was not treated and mice of group 2 were transferred with 20×10^6 spleen cells of 3-month old (NZB×NZW)F1 mice that were injected 3 times (s.c., every other day) with 300 μg/mouse of hCDR1. All splenocytes were injected intraperitoneally. Mice were tested for anti-dsDNA autoantibody production, disease manifestations, and were sacrificed 4 weeks after cell transfer.
The experiment was repeated a few more times using revhCDR1 as control.

[4] = tested on: lymph node cells of the BALB/c mice; assay: Cytokine production by 16/6Id-stimulated LNC of treated BALB/c mice (ELISA); type: in vivo; conditions: BALB/c mice immunized with 16/6Id, hCDR1 50 μg, LNC stimulated with 16/6Id
Method: as §1, with “All assays were performed, in triplicate, in flat-bottomed microtiter plates (Falcon, Becton Dickinson, Oxmard, Calif., USA) in which 2×10^5 PBL were cultured in enriched RPMI-1640 as described (Dayan et al., 2000). The PBL were exposed to various concentrations (0.1-40 μg/well) of the human anti-DNA 16/6Id mAb with and without the addition of the various CDR-based peptides at a concentration of at least 10-fold excess over that of the 16/6Id. Phytohemagglutinin (PHA; 2 μg/well) was used as a control for culture conditions at each experiment. The cultures were incubated in 7.5% CO2 at 37° C. for 6 days. Eighteen hours before the cells were harvested, [^3H]-thymidine (0.5μ Ci of 5 Ci/mmol) (Nuclear Research Center, Negev, Israel) was added to all cultures.” left out

[5] = tested on: MMP-3; assay: MMP-3 levels in sera of (NZB×NZW)F1 mice (Western blot); type: in vivo; conditions: 300 μg s.c. once a week from age 7 months; sera after 5 injections; FIG. 23
Method: as §1, with “All assays were performed, in triplicate, in flat-bottomed microtiter plates (Falcon, Becton Dickinson, Oxmard, Calif., USA) in which 2×10^5 PBL were cultured in enriched RPMI-1640 as described (Dayan et al., 2000). The PBL were exposed to various concentrations (0.1-40 μg/well) of the human anti-DNA 16/6Id mAb with and without the addition of the various CDR-based peptides at a concentration of at least 10-fold excess over that of the 16/6Id. Phytohemagglutinin (PHA; 2 μg/well) was used as a control for culture conditions at each experiment. The cultures were incubated in 7.5% CO2 at 37° C. for 6 days. Eighteen hours before the cells were harvested, [^3H]-thymidine (0.5μ Ci of 5 Ci/mmol) (Nuclear Research Center, Negev, Israel) was added to all cultures.” left out

Row | Sequence | % Inhibition of the proliferation of SJL-derived LNC to the human 16/6Id mAb [1] [%] | activity of MMP-9 in pooled sera [2] | Proteinuria g/L ± SEM ([3]; Table 13, recipients of 20 × 10^6 spleen cells from mice treated 3 times s.c. with 300 μg/mouse, non-treated 15.07 ± 4.92) [g/L] | I.C.D ± SEM ([3]; Table 13, recipients of 20 × 10^6 spleen cells from treated mice, non-treated 2.25 ± 0.47) | I.C.D ± SEM ([3]; Table 14 (repeat experiment), recipients of 20 × 10^6 spleen cells from treated mice, non-treated 2.3 ± 0.26) | Proteinuria g/L ± SEM ([3]; Table 14 (repeat experiment), recipients of 20 × 10^6 spleen cells from treated mice, non-treated 10.9 ± 3.05) [g/L] | levels of anti-DNA antibodies ([3]; transfer of cells of treated mice, 4 weeks after cell transfer) | production of INF-γ ([4]; FIG. 3A) | secretion of TGF-β ([4]; FIG. 3B) | secretion of IL-10 ([4]; FIG. 3C) | levels of MMP-3 in pooled sera [5]
1 | YYCARGLLRGGWNDVDYYGMDV (Human) [hCDR3, peptide based on the CDR3 of the heavy chain of the human 16/6Id mAb] | 68 |  |  |  |  |  |  |  |  |  | 
2 | GYYWSWIRQPPGKGEEWIG (Human) [hCDR1, 19-mer peptide based on the CDR1 of the heavy chain of the human 16/6Id mAb] |  | down regulated | 0.97 ± 0.67 | 0.75 ± 0.47 | 1.33 ± 0.35 | 2.91 ± 1.6 | mild reduction | down-regulated | up-regulated | up-regulated | down regulated
